Test: Measurement of mRNA encapsulation in lipid nanoparticles (Quant-iT Ribogreen)
Assay type: physicochemical
Details: Leptin mRNA in LNP
Experimental: All equipment and disposable supplies are certified free of RNase activity by the manufacturer or rendered RNase free by use of the RNaseZap reagent (LifeTechnologies). mRNA is encapsulated at a cationic lipid amine to mRNA phosphate (N:P) molar ratio of 4:1. Lipids (cationic lipid, DSPC, cholesterol and lipidated PEG or stealth lipid) are dissolved in ethanol. The molar ratios are 40:10:38:2, respectively. The mixture is sonicated briefly, then gently agitated for 5 minutes and then maintained at 37° C. until use. mRNA is exchanged into citrate buffer pH 5.8-6.0 by use of Amicon Ultra-15 centrifugal concentrators, and the final concentration is adjusted to 0.5 mg/ml and held at 37° C. until use. An equal volume of lipids in ethanol, mRNA in citrate buffer, and citrate buffer alone are drawn into disposable syringes.
Tubing leading from syringes containing lipids and mRNA are attached to the T junction, and tubing leading from the syringe containing citrate buffer alone is paired with the tubing exiting the T-junction over a collection vessel containing a stir bar on an active stir plate. Syringes are placed in a syringe pump set to expel contents at a flow rate of 1 ml per minute. The pump is activated, and the collected mRNA in lipid nanoparticles is transferred to SnakeSkin dialysis tubing (10,000 MWCO, Thermo Scientific). Material is dialyzed against RNAse- and pyrogen-free 1× phosphate buffered saline overnight at 4° C.
Percent encapsulation of mRNA in lipid nanoparticles is determined using the Quant-iT Ribogreen RNA Assay kit (Life Technologies). The LNP-mRNA suspension is assayed in buffer (mRNA outside the particle), and buffer plus Triton X-100 detergent (total mRNA). The difference calculated is the mRNA inside the particle. Prepare a 1000 ng/mL stock from the RNA provided in the kit and use this to generate a standard curve (0 ng/ml, 15.63-1000 ng/ml) in TE and TE+0.75% Triton X-100. Prepare LNP-mRNA samples in TE buffer and TE buffer+0.75% Triton X-100 with appropriate dilution so that reading is in the range of standard curve (400-2,000 fold). In a 384-well plate (Costar non-treated #3573) add 0.04 ml of standard (in duplicate) or sample (in triplicate) per well. Dilute Ribogreen reagent 240-fold in TE buffer and add 0.06 ml per well. Mix contents of wells and measure fluorescence (excitation=480 nm, emission=520 nm). Subtract background values (no RNA) from standard and test sample values and determine the concentrations of RNA in the samples using the standard curves. Determine the percent encapsulation of the sample by dividing the difference in concentrations between sample+triton and sample in buffer alone by the sample+triton concentration.

Row | SMILES | % encapsulation mRNA Leptin
1 | CCCCC/C=C\C/C=C\CCCCCCCC(=O)OCC(COC(=O)CCCCCCC/C=C\C/C=C\CCCCC)COC(=O)CCN1CCN(C)CC1 [Example 2, (9Z,9′Z,12Z,12′Z)-2-(((3-(4-methylpiperazin-1-yl)propanoyl)oxy)methyl)propane-1,3-diyl bis(octadeca-9,12-dienoate)] | 70.5%
2 | CCCCC/C=C\C/C=C\CCCCCCCC(=O)OCC(COC(=O)CCCCCCC/C=C\C/C=C\CCCCC)COC(=O)CCCN1CCCC1 [Example 3, (9Z,9′Z,12Z,12′Z)-2-(((4-(pyrrolidin-1-yl)butanoyl)oxy)methyl)propane-1,3-diyl bis(octadeca-9,12-dienoate)] | 32.5%
3 | CCCCC/C=C\C/C=C\CCCCCCCC(=O)OCC(COC(=O)CCCCCCC/C=C\C/C=C\CCCCC)COC(=O)CCCN(C)C [Example 11, (9Z,9′Z,12Z,12′Z)-2-(((4-(dimethylamino)butanoyl)oxy)methyl)propane-1,3-diyl bis(octadeca-9,12-dienoate)] | 45.4%
4 | CCCCC/C=C\C/C=C\CCCCCCCC(=O)OCC(COC(=O)CCC(OCCCCCCCC)OCCCCCCCC)COC(=O)C1CCN(C(C)C)CC1 (centres unmarked) [Example 33, 3-((4,4-bis(octyloxy)butanoyl)oxy)-2-(((9Z,12Z)-octadeca-9,12-dienoyloxy)methyl)propyl 1-isopropylpiperidine-4-carboxylate] | 97.4%
5 | CCCCC/C=C\C/C=C\CCCCCCCC(=O)OCC(COC(=O)CCC(OCCCCCCCC)OCCCCCCCC)COC(=O)[C@@H]1CCCN1C (stereo partly drawn) [Example 37, (2S)-3-((4,4-bis(octyloxy)butanoyl)oxy)-2-(((9Z,12Z)-octadeca-9,12-dienoyloxy)methyl)propyl 1-methylpyrrolidine-2-carboxylate] | 14.3%
6 | CCCCC/C=C\C/C=C\CCCCCCCC(=O)OCC(COC(=O)CCC(OCCCCCCCC)OCCCCCCCC)COC(=O)[C@H]1CCCN1C (stereo partly drawn) [Example 38, (2R)-3-((4,4-bis(octyloxy)butanoyl)oxy)-2-(((9Z,12Z)-octadeca-9,12-dienoyloxy)methyl)propyl 1-methylpyrrolidine-2-carboxylate] | 9.6%
7 | CCCCC/C=C\C/C=C\CCCCCCCC(=O)OCC(COC(=O)CCC(OCCCCCCCC)OCCCCCCCC)COC(=O)C1CN(C)CCO1 (centres unmarked) [Example 39, 3-((4,4-bis(octyloxy)butanoyl)oxy)-2-(((9Z,12Z)-octadeca-9,12-dienoyloxy)methyl)propyl 4-methylmorpholine-2-carboxylate] | 10.0%
8 | CCCCC/C=C\C/C=C\CCCCCCCC(=O)OCC(COC(=O)CCC(OCCCCCCCC)OCCCCCCCC)COC(=O)C1CCN(C)CC1 (centres unmarked) [Example 41, 3-((4,4-bis(octyloxy)butanoyl)oxy)-2-(((9Z,12Z)-octadeca-9,12-dienoyloxy)methyl)propyl 1-methylpiperidine-4-carboxylate] | 97.5%
9 | CCCCC/C=C\C/C=C\CCCCCCCC(=O)OCC(COC(=O)CCC(OCCCCCCCC)OCCCCCCCC)COC(=O)C1CCCN(C)C1 (centres unmarked) [Example 42, 3-((4,4-bis(octyloxy)butanoyl)oxy)-2-(((9Z,12Z)-octadeca-9,12-dienoyloxy)methyl)propyl 1-methylpiperidine-3-carboxylate] | 90.3%
10 | CCCCC/C=C\C/C=C\CCCCCCCC(=O)OCC(COC(=O)CCC(OCCCCCCCC)OCCCCCCCC)COC(=O)OC1CC(C)(C)N(C)C(C)(C)C1 (centres unmarked) [Example 52, (9Z,12Z)-3-((4,4-bis(octyloxy)butanoyl)oxy)-2-(((((1,2,2,6,6-pentamethylpiperidin-4-yl)oxy)carbonyl)oxy)methyl)propyl octadeca-9,12-dienoate] | 32.2%

The next lines start with the values.

Row | % encapsulation mRNA Leptin | SMILES
11 | 1.9% | CCCCC/C=C\C/C=C\CCCCCCCC(=O)OCC(COC(=O)CCCCCCC/C=C\C/C=C\CCCCC)COC(=O)CCN1CCOCC1 [Example 10, (9Z,9′Z,12Z,12′Z)-2-(((3-morpholinopropanoyl)oxy)methyl)propane-1,3-diyl bis(octadeca-9,12-dienoate)]
12 | 82.0% | CCCCC/C=C\C/C=C\CCCCCCCC(=O)OCC(COC(=O)CCCCCC(CCCCCC)CCCCCC)COC(=O)OCCCN(CC)CC (centres unmarked) [Example 23, (9Z,12Z)-3-(((3-(diethylamino)propoxy)carbonyl)oxy)-2-(((7-hexyltridecanoyl)oxy)methyl)propyl octadeca-9,12-dienoate]
13 | 80.8% | CCCCC/C=C\C/C=C\CCCCCCCC(=O)OCC(COC(=O)CCCCC(OCCCCCCCC)OCCCCCCCC)COC(=O)OCCCN(CC)CC (centres unmarked) [Example 27, (9Z,12Z)-3-((6,6-bis(octyloxy)hexanoyl)oxy)-2-((((3-(diethylamino)propoxy)carbonyl)oxy)methyl)propyl octadeca-9,12-dienoate]
14 | 22.4% | CCCCC/C=C\C/C=C\CCCCCCCC(=O)OCC(COC(=O)CCC(OCCCCCCCC)OCCCCCCCC)COC(=O)c1ccc(CN(CC)CC)cc1 (centres unmarked) [Example 44, 3-((4,4-bis(octyloxy)butanoyl)oxy)-2-(((9Z,12Z)-octadeca-9,12-dienoyloxy)methyl)propyl 4-((diethylamino)methyl)benzoate]
15 | 84.4% | CCCCC/C=C\C/C=C\CCCCCCCC(=O)OCC(COC(=O)CCC(OCCCCCCCC)OCCCCCCCC)COC(=O)OCCCN1CCCC1 (centres unmarked) [Example 45, (9Z,12Z)-3-((4,4-bis(octyloxy)butanoyl)oxy)-2-((((3-(pyrrolidin-1-yl)propoxy)carbonyl)oxy)methyl)propyl octadeca-9,12-dienoate]
16 | 63.5% | CCCCC/C=C\C/C=C\CCCCCCCC(=O)OCC(COC(=O)CCC(OCCCCCCCC)OCCCCCCCC)COC(=O)OCCCN1CCN(C)CC1 (centres unmarked) [Example 46, (9Z,12Z)-3-((4,4-bis(octyloxy)butanoyl)oxy)-2-((((3-(4-methylpiperazin-1-yl)propoxy)carbonyl)oxy)methyl)propyl octadeca-9,12-dienoate]
17 | 90.4% | CCCCC/C=C\C/C=C\CCCCCCCC(=O)OCC(COC(=O)CCC(OCCCCCCCC)OCCCCCCCC)COC(=O)OC1CCN(C)C1 (centres unmarked) [Example 47, (9Z,12Z)-3-((4,4-bis(octyloxy)butanoyl)oxy)-2-(((((1-methylpyrrolidin-3-yl)oxy)carbonyl)oxy)methyl)propyl octadeca-9,12-dienoate]
18 | 82.8% | CCCCC/C=C\C/C=C\CCCCCCCC(=O)OCC(COC(=O)CCC(OCCCCCCCC)OCCCCCCCC)COC(=O)OC1CN(C)C1 (centres unmarked) [Example 49, (9Z,12Z)-3-((4,4-bis(octyloxy)butanoyl)oxy)-2-(((((1-methylazetidin-3-yl)oxy)carbonyl)oxy)methyl)propyl octadeca-9,12-dienoate]
19 | 83.9% | CCCCC/C=C\C/C=C\CCCCCCCC(=O)OCC(COC(=O)CCC(OCCCCCCCC)OCCCCCCCC)COC(=O)OC1CCN(CC)CC1 (centres unmarked) [Example 50, (9Z,12Z)-3-((4,4-bis(octyloxy)butanoyl)oxy)-2-(((((1-ethylpiperidin-4-yl)oxy)carbonyl)oxy)methyl)propyl octadeca-9,12-dienoate]
20 | 82.3% | CCCCC/C=C\C/C=C\CCCCCCCC(=O)OCC(COC(=O)CCC(OCCCCCCCC)OCCCCCCCC)COC(=O)OCC1CCN(C)CC1 (centres unmarked) [Example 51, (9Z,12Z)-3-((4,4-bis(octyloxy)butanoyl)oxy)-2-(((((1-methylpiperidin-4-yl)methoxy)carbonyl)oxy)methyl)propyl octadeca-9,12-dienoate]
